For 25 molecules, IC50 and EC50 results are on record in US9611252B2 (LifeSci Pharmaceuticals, Inc., priority 2013, dated 2017).

Like-named read-outs stand apart in the source and are kept apart here.

As usually defined, the IC50 is the concentration at which inhibition is half-maximal. In general, EC50 refers to the concentration giving half of the maximal effect.

Assay [1] deals with human Plasma Kallikrein (Homo sapiens (Human), UniProt P03952). The assay is described as follows: In vitro enzyme inhibition of human plasma kallikrein (PFR-AMC cleavage). The format is biochemical. The note with it: human plasma kallikrein, Pro-Phe-Arg-AMC substrate, 37° C.; read-out: hPK IC50. Put shortly: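 Compound pre-incubated with human plasma kallikrein 5 min at 37° C in 50 mM Tris-HCl pH 7.5, 150 mM NaCl, 0.01% Triton X-100. Reaction started with PFR-AMC, cleavage read kinetically at 37° C every 43 s for 1 h.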
Chain of human Plasma Kallikrein (P03952 20-638): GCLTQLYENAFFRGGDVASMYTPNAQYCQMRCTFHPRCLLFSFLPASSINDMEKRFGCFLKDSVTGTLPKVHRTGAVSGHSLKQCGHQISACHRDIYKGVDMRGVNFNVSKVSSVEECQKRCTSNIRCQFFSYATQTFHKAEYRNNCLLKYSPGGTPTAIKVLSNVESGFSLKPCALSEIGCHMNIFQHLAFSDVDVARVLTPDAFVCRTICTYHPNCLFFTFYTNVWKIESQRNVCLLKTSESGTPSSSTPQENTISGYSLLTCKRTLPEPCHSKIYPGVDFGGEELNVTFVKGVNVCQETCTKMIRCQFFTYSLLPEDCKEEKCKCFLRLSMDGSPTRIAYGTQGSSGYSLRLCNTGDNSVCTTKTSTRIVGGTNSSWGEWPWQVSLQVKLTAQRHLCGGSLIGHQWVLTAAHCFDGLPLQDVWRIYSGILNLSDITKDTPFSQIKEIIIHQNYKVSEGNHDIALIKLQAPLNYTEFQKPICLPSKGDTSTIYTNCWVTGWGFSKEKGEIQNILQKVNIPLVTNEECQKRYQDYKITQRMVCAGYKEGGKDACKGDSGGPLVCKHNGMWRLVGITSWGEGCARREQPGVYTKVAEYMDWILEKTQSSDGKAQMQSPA

The target in assay [2] is kallikrein (Homo sapiens (Human), UniProt P03952). The assay can be described thus: In vitro cellular assay (contact assay): kallikrein activity in ellagic acid-activated human plasma, substrate Z-FR-2-AMC. The format is biochemical. How it is done: The ability of the compounds disclosed herein to inhibit cellular kallikrein activity was quantified and the respective EC50 value was determined.
Chain of kallikrein (P03952 20-638): as above
All dilutions were prepared in an assay buffer comprising 50 mM Tris-HCl pH 7.2, 150 mM NaCl, and 0.01% Triton X-100.
The ten solutions of the test compounds, prepared by serial dilution, were further diluted 50-fold in the assay buffer.
Human plasma is thawed on ice and centrifuged for 15 min at 4° C. to remove platelets. A 1 mM stock solution of ellagic acid is diluted to 8 μM and mixed with human plasma, after removing platelets, at a ratio of 1:0.8.
A 22.5 μL volume of the final mixture of human plasma and ellagic acid was added to a 96-well microwell plate and the plate was incubated for 15 min at 37° C.
The CINH inhibitor at various concentrations, prepared by serial dilutions as described above, were added to the inhibitor control wells. […] Each CINH concentration is tested in duplicates.
The test compounds at various concentrations, also prepared by serial dilutions as described above, are added to the test wells. […] Each test compound concentration was tested in duplicates.
In addition to the inhibitor control and test wells, the 96 well assay plate includes positive control wells which contained the mixture of human plasma and ellagic acid without C1NH inhibitor or test compounds, and background wells which contained neither the mixture of human plasma and ellagic acid nor the test compounds. The total volume of liquid in positive control and background wells was brought up to 35 μL, using the assay buffer.
The assay plate containing C1NH inhibitors and test compounds mixed with human plasma and ellagic acid and appropriate controls was incubated at 37° C. for 5 min. […] The reagents were mixed well by shaking the plate gently for 30 sec.
The enzyme reaction was quantified by immediate kinetic reading of the assay plate using excitation/emission wavelengths of 330 nm/440 nm respectively. Fluorescence intensity was recorded for 60 min, using a time interval of 43 sec.
The inhibition activity of the test compounds were evaluated using the IC50 values, calculated according to the dose-response curve of the test compounds, fitted using the “log(inhibitor)-response (variable slope)” equation in GraphPadPrism software (GraphPad Software, Inc.).
The percentage inhibition was calculated using the following equation:
[formula] where, Mean(BG) is the average value of the fluorescence intensity of the background wells and Mean(PC) is the average value of the fluorescence intensity of the positive control wells.
Table 4 provides the EC50 values of various compounds disclosed herein.

The mark [3] stands for this setting: human plasma activated with ellagic acid, Z-FR-2-AMC substrate, 37° C., read-out: Contact Assay EC50.

`Cc1ccc2cc(Cc3cc(C(=O)NCc4ccc5c(N)nccc5c4)ccn3)ccc2n1` [Example 111, N-((1-aminoisoquinolin-6-yl)methyl)-2-((2-methylquinolin-6-yl)methyl)isonicotinamide]: in assay [1], the IC50 was less than 100 nM. In assay [2] (setting [3]), the EC50 was 100 to 1000 nM.

On to `Cc1cnc2c(C#N)cc(Cc3cc(C(=O)NCc4cnc5[nH]cc(Cl)c5c4)ccn3)cc2c1` [Example 73, N-((3-chloro-1H-pyrrolo[2,3-b]pyridin-5-yl)methyl)-2-((8-cyano-3-methylquinolin-6-yl)methyl)isonicotinamide], for which the concentration for half-maximal inhibition (IC50) in assay [1] was less than 100 nM. In assay [2] (setting [3]), the EC50 lay in the range of 100 to 1000 nM.

On to `NC(=O)c1cc(Cc2cc(C(=O)NCc3cc4cc[nH]c4cc3F)ccn2)cc2cc(Cl)cnc12` [Example 66, 3-chloro-6-((4-(((6-fluoro-1H-indol-5-yl)methyl)carbamoyl)pyridin-2-yl)methyl)quinoline-8-carboxamide], for which the IC50 in assay [1] was less than 100 nM. Further, the half-maximal effective concentration (EC50) in assay [2] (setting [3]) lay in the range of 100 to 1000 nM.

In the case of `Cc1cc(N)nc(C)c1CNC(=O)c1ccnc(Cc2cc(Cl)c3ncc(Cl)cc3c2)c1` [Example 100, N-((6-amino-2,4-dimethylpyridin-3-yl)methyl)-2-((3,8-dichloroquinolin-6-yl)methyl)isonicotinamide], the IC50 in assay [1] is less than 100 nM. In assay [2] (setting [3]), the EC50 was less than 100 nM.

As for `Cc1cnc2c(C(N)=O)cc(Cc3cc(C(=O)NCc4n[nH]c5ccc(Cl)cc45)ccn3)cc2c1` [Example 82, 6-((4-(((5-chloro-1H-indazol-3-yl)methyl)carbamoyl)pyridin-2-yl)methyl)-3-methylquinoline-8-carboxamide], the IC50 in assay [1] is less than 100 nM. Besides, the EC50 in assay [2] (setting [3]) fell in the range of 100 to 1000 nM.

For `Cc1cnc2c(S(C)(=O)=O)cc(Cc3cc(C(=O)NCc4ccc5[nH]cc(Cl)c5c4F)ccn3)cc2c1` [Example 21, N-((3-chloro-4-fluoro-1H-indol-5-yl)methyl)-2-((3-methyl-8-(methylsulfonyl)quinolin-6-yl)methyl)isonicotinamide], the IC50 in assay [1] is less than 100 nM. Further, in assay [2] (setting [3]), the EC50 is less than 100 nM.

Turning to `Cc1cnc2c(C(N)=O)cc(Cc3cc(C(=O)NCc4ccc5[nH]cc(Cl)c5c4F)ccn3)cc2c1` [Example 81, 6-((4-(((3-chloro-4-fluoro-1H-indol-5-yl)methyl)carbamoyl)pyridin-2-yl)methyl)-3-methylquinoline-8-carboxamide], in assay [1], the concentration for half-maximal inhibition (IC50) was less than 100 nM. Also, in assay [2] (setting [3]), the concentration giving a half-maximal response (EC50) was 100 to 1000 nM.

On to `Cc1cnc2c(S(C)(=O)=O)cc(Cc3cc(C(=O)NCc4cc5cc[nH]c5cc4F)ccn3)cc2c1` [Example 18, N-((6-fluoro-1H-indol-5-yl)methyl)-2-((3-methyl-8-(methylsulfonyl)quinolin-6-yl)methyl)isonicotinamide], for which the IC50 in assay [1] is less than 100 nM. For the same molecule, the concentration giving a half-maximal response (EC50) in assay [2] (setting [3]) lay in the range of 100 to 1000 nM.

With `Cc1cc(N)nc(C)c1CNC(=O)c1ccnc(Cc2cc(F)c3ncc(Cl)cc3c2)c1` [Example 89, N-(6-amino-2,4-dimethyl-pyridin-3-ylmethyl)-2-(3-chloro-8-fluoro-quinolin-6-ylmethyl)-isonicotinamide], the concentration for half-maximal inhibition (IC50) in assay [1] is less than 100 nM. The EC50 in assay [2] (setting [3]) was less than 100 nM.

For the molecule `Cc1ccc2ncc(Cc3cc(C(=O)NCc4c(C)cc(N)nc4C)ccn3)cc2c1` [Example 114, N-((6-amino-2,4-dimethylpyridin-3-yl)methyl)-2-((6-methylquinolin-3-yl)methyl)isonicotinamide], the IC50 in assay [1] is less than 100 nM. The concentration for a half-maximal effect (EC50) in assay [2] (setting [3]) was less than 100 nM.

As for `Cc1cnc2c(C(N)=O)cc(Cc3cc(C(=O)NCc4c(C)cc(N)nc4C)ccn3)cc2c1` [Example 77, 6-((4-(((6-amino-2,4-dimethylpyridin-3-yl)methyl)carbamoyl)pyridin-2-yl)methyl)-3-methylquinoline-8-carboxamide], the IC50 in assay [1] was less than 100 nM. Also, in assay [2] (setting [3]), the EC50 was less than 100 nM.

As to `Cc1cnc2c(S(C)(=O)=O)cc(Cc3cc(C(=O)NCc4n[nH]c5ccc(Cl)cc45)ccn3)cc2c1` [Example 20, N-((5-chloro-1H-indazol-3-yl)methyl)-2-((3-methyl-8-(methylsulfonyl)quinolin-6-yl)methyl)isonicotinamide], the half-inhibitory concentration (IC50) in assay [1] was less than 100 nM. Besides, the EC50 in assay [2] (setting [3]) is less than 100 nM.

For `NC(=O)c1cc(Cc2cc(C(=O)NCc3ccc4c(N)nccc4c3)ccn2)cc2cc(Cl)cnc12` [Example 64, 6-((4-(((1-aminoisoquinolin-6-yl)methyl)carbamoyl)pyridin-2-yl)methyl)-3-chloroquinoline-8-carboxamide], the IC50 in assay [1] was less than 100 nM. In addition, the EC50 in assay [2] (setting [3]) was less than 100 nM.

As to `CS(=O)(=O)c1cc(Cc2cc(C(=O)NCc3cc4c(Cl)c[nH]c4cc3F)ccn2)cc2cc(Cl)cnc12` [Example 68, N-((3-chloro-6-fluoro-1H-indol-5-yl)methyl)-2-((3-chloro-8-(methylsulfonyl)quinolin-6-yl)methyl)isonicotinamide], the concentration for half-maximal inhibition (IC50) in assay [1] was less than 100 nM. Also, the EC50 in assay [2] (setting [3]) was less than 100 nM.

Regarding `Cc1nc(N)ccc1CNC(=O)c1ccnc(Cc2cc(F)c3ncc(Cl)cc3c2)c1` [Example 91, N-(6-amino-2-methyl-pyridin-3-ylmethyl)-2-(3-chloro-8-fluoro-quinolin-6-ylmethyl)-isonicotinamide], the IC50 in assay [1] is less than 100 nM. In addition, the EC50 in assay [2] (setting [3]) was less than 100 nM.

Turning to `Cc1cnc2ccc(Cc3cc(C(=O)NCc4cc5c(Cl)c[nH]c5cc4F)ccn3)cc2c1` [Example 143, N-((3-chloro-6-fluoro-1H-indol-5-yl)methyl)-2-((3-methylquinolin-6-yl)methyl)isonicotinamide], in assay [1], the IC50 was less than 100 nM. Besides, in assay [2] (setting [3]), the EC50 lay in the range of 100 to 1000 nM.

On to `N#Cc1cc(Cc2cc(C(=O)NCc3ccc4c(N)nccc4c3)ccn2)cc2cc(Cl)cnc12` [Example 57, N-(1-amino-isoquinolin-6-ylmethyl)-2-(3-chloro-8-cyano-quinolin-6-ylmethyl)-isonicotinamide], for which the IC50 in assay [1] was less than 100 nM. This molecule returned an EC50 in assay [2] of 100 to 1000 nM.

With `Cc1cc(N)nc(C)c1CNC(=O)c1ccnc(Cc2ccc3ncc(Cl)cc3c2)c1` [Example 35, N-((6-amino-2,4-dimethylpyridin-3-yl)methyl)-2-((3-chloroquinolin-6-yl)methyl)isonicotinamide], the IC50 in assay [1] is less than 100 nM. For the same molecule, the half-maximal effective concentration (EC50) in assay [2] (setting [3]) was less than 100 nM.

Consider `Cc1nc(N)ccc1CNC(=O)c1ccnc(Cc2ccc3ncc(Cl)cc3c2)c1` [Example 34, N-((6-amino-2-methylpyridin-3-yl)methyl)-2-((3-chloroquinolin-6-yl)methyl)isonicotinamide], for which, in assay [1], the IC50 is less than 100 nM. Also, the concentration for a half-maximal effect (EC50) in assay [2] (setting [3]) is less than 100 nM.

On to `Cc1cc2cc(Cc3cc(C(=O)NCc4ccc5c(N)nccc5c4)ccn3)ccc2cn1` [Example 132, N-((1-aminoisoquinolin-6-yl)methyl)-2-((3-methylisoquinolin-6-yl)methyl)isonicotinamide], for which the IC50 in assay [1] was less than 100 nM. In assay [2] (setting [3]), the EC50 fell in the range of 100 to 1000 nM.

On to `Cc1nc(N)ccc1CNC(=O)c1ccnc(Cc2cc(C(N)=O)c3ncc(Cl)cc3c2)c1` [Example 62, 6-((4-(((6-amino-2-methylpyridin-3-yl)methyl)carbamoyl)pyridin-2-yl)methyl)-3-chloroquinoline-8-carboxamide], for which the IC50 in assay [1] was less than 100 nM. In assay [2] (setting [3]), the half-maximal effective concentration (EC50) is less than 100 nM.

For `Cc1cnc2c(C#N)cc(Cc3cc(C(=O)NCc4ccc5c(N)nccc5c4)ccn3)cc2c1` [Example 71, N-((1-aminoisoquinolin-6-yl)methyl)-2-((8-cyano-3-methylquinolin-6-yl)methyl)isonicotinamide], the IC50 in assay [1] was less than 100 nM. Further, the concentration for a half-maximal effect (EC50) in assay [2] (setting [3]) is less than 100 nM.

In the case of `Cc1ccc2ncc(Cc3cc(C(=O)NCc4cc5c(Cl)c[nH]c5cc4F)ccn3)cc2c1` [Example 116, N-((3-chloro-6-fluoro-1H-indol-5-yl)methyl)-2-((6-methylquinolin-3-yl)methyl) isonicotinamide], the concentration for half-maximal inhibition (IC50) in assay [1] is less than 100 nM. Besides, the EC50 in assay [2] (setting [3]) fell in the range of 100 to 1000 nM.

For `Cc1ccc2cc(Cc3cc(C(=O)NCc4cc5c(Cl)c[nH]c5cc4F)ccn3)ccc2n1` [Example 110, N-((3-chloro-6-fluoro-1H-indol-5-yl)methyl)-2-((2-methylquinolin-6-yl)methyl)isonicotinamide], the IC50 in assay [1] was less than 100 nM. Besides, the EC50 in assay [2] (setting [3]) was in the range of 100 to 1000 nM.

For the molecule `Cc1nc(N)ccc1CNC(=O)c1ccnc(Cc2cc(C#N)c3ncc(Cl)cc3c2)c1` [Example 56, N-(6-amino-2-methyl-pyridin-3-ylmethyl)-2-(3-chloro-8-cyano-quinolin-6-ylmethyl)-isonicotinamide], the half-maximal effective concentration (EC50) in assay [2] was in the range of 100 to 1000 nM.
